# From patent US10028990B2, “Functional foods and beverages with synergistic properties to promote homeostasis” (JUSTBIO INC., priority 2011, dated 2018)
# Residues, ends and D or L forms follow the SMILES beside them.
# Tests used:
# [1] = ORAC (Oxygen Radical Absorbance Capacity) test; conditions: FIG. 46; combined with maple syrup
# Description: The antioxidant capacity of formulations and beverages was determined with the ORAC (Oxygen Radical Absorbance Capacity) test. ORAC assays were performed as previously described (Prior et al, 2005). […] These free radicals are generated by the exposition of flurorescein to AAPH. […] The oxidation process is a kinetic reaction that is measured fluorescence levels (excitation: 485 nm, emission: 528 nm) over time using a Synergy HT (Biotek) microplate reader. Area under the curves (AUC) from each compound tested are calculated and compared to the blank and the control of reference the vitamin E analog 6-Hydroxy-2,5,7,8 Teramethylchromane-2-carboxylic acid (Trolox). ORAC values are expressed as μmol of Trolox equivalent per ml (μmol TE/ml) of compound tested.
# [2] = tested on: SH-SY5Y neurons; experiment: ROS production by dopaminergic SH-SY5Y neurons exposed to supernatant of Cal27 cells; type: cell-based, Human
# Description: (§1) Cellular ROS levels were obtained by measuring the oxidation of CM-H2DCFDA (5-(and 6)-chlromethyl-20,70-dichlorodihydrofluresceindiacetate; Invitrogen) a cell-permeant indicator. Cal27, HEK 293 and SH-SY5Y were plated in 96 well plates at a cell density of 25000 cells per well. Cells were treated for 1 hour with 5 μM CM-H2DCFDA. After removing the CDFDA solution, cells were treated with various adaptogenic formulations prepared with ROS buffer (HBSS containing 2% FBS). After 30 min of exposure with samples, a first reading was taken using the synergy HT (Biotek) plate reader. Various concentrations of AAPH (100 mM, 40 mM, 16 mM, 6.4 mM and 2.5 mM) were then added, and readings (excitation: 485 nm, emission: 530 nm) were taken every 30 minutes for 2 hours. The fluorescence intensity is an indicator of H2O2 intracellular level so values are expressed in Relative Fluorescence Unit (RFU).
# This assay mimics the impact of mucosal cells on subepithelial neuronal cells.
# [3] = target: T1, TLR2 (Homo sapiens, UniProt O60603+Q15399); experiment: TLR2 activation with Pam3Cys in Cal27 cells under low or high oxidative stress; type: cell-based; conditions: FIG. 34, Pam3Cys 500 ng/ml
# T1 construct: TLR2-dependent ROS production in Cal27 exposed for 30 minutes to various concentrations of AAPH; host or cells: CAL27
# T1 sequence (O60603 21-784): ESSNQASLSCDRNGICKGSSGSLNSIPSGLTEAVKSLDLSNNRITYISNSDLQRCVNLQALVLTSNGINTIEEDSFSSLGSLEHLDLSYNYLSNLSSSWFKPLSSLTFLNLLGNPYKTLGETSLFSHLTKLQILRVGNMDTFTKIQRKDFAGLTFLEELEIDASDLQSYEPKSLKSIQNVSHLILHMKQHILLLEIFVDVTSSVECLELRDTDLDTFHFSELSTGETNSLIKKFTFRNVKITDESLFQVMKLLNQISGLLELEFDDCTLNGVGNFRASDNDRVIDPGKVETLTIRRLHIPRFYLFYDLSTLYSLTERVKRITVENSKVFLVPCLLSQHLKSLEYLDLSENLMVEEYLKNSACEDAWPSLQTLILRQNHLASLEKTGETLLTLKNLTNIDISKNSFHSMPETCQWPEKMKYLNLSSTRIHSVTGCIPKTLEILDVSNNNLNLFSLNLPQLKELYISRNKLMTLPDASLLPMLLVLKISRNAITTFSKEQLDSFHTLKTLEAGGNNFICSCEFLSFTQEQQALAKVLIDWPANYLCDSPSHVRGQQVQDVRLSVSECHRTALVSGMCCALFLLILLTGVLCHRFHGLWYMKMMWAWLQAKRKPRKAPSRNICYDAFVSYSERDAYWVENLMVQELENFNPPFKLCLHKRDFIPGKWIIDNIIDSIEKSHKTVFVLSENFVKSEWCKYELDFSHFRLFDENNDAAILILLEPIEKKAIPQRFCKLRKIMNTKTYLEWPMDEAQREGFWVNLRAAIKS
# T1 sequence (Q15399 25-786): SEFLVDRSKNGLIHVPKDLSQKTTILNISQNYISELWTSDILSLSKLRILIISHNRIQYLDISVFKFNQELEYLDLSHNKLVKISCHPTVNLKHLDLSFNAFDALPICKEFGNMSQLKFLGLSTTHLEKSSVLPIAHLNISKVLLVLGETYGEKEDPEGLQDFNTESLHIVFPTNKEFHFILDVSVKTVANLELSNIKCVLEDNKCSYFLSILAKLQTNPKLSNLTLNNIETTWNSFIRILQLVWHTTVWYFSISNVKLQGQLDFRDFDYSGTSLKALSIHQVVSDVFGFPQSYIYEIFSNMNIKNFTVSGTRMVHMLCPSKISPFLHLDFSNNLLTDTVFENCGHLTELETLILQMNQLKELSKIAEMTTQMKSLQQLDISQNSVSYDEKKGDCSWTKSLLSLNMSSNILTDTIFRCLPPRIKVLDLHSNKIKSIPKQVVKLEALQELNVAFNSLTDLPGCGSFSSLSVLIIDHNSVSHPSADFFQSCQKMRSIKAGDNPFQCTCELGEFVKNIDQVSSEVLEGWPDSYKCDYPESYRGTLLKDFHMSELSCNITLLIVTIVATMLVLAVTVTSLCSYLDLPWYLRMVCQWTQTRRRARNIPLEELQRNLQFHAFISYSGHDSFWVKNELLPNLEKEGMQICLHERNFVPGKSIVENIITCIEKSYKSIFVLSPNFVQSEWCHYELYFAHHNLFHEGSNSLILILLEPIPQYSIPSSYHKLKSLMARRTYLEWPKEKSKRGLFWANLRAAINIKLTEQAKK
# Description: Cell lines (CAL27, SH-SY5Y) used for this assay were plated in plaque assays at a density of 50,000-100,000 cells per well. Colorimetric MTT (3-(4,5-dimethylthiazol-2-yl)-2,5-diphenyl tetrazolium bromide) was dissolved in HBSS buffer to obtain a final concentration of 0.5 mg/ml per well. Cell plates were incubated for 2 hours at 37° C. Conditioned medium was then removed, and acid-isopropanol (0.04N HCl in isopropanol) was added to all wells. HCL was used as positive control to induce cell death. Plates were read at 530 nm/630 nm in a Synergy Biotek machine. […] This method is an adaptation of a previously described assay (Mossman, 1983).
# All cell lines were obtained from the American Type Culture Collection (ATCC, Manassas, US). In some experiments, cells were transferred to a 96 wells plate and treated with different concentration of TLR2 agonist synthetic triacylated lipoprotein PAM3CSK4 (InvivoGen) starting by 500 ng/ml final concentration to activate TLR2.
# as §1
# ATP intracellular levels were measured from whole cell lysates obtained through a freeze-thaw cycle, whereas ATP secreted from cells were measured from conditioned cell culture supernatants. Both intracellular and secreted ATP using measured using an ATP determination kit purchased from Invitrogen (Molecular Probes). ATP levels were detected at luminescence 560 nm. ATP levels were normalized to untreated control and were expressed as % ATP levels.
compound,measurement,setting,value
"C=C1C[C@@]23CC[C@H]4[C@@](C)(CCC[C@@]4(C)C(=O)O[C@@H]4O[C@H](CO)[C@@H](O)[C@H](O)[C@H]4O)[C@@H]2CC[C@]1(O[C@@H]1O[C@H](CO)[C@@H](O)[C@H](O[C@@H]2O[C@H](CO)[C@@H](O)[C@H](O)[C@H]2O)[C@H]1O[C@@H]1O[C@H](CO)[C@@H](O)[C@H](O)[C@H]1O)C3 [Rebaudiside A, Rebaudioside A]",synergy in combination with maple syrup (ORAC versus sum of SE+ingredient),[1],act in synergy
COC(=O)[C@H](Cc1ccccc1)NC(=O)[C@@H](N)CC(=O)O [aspartame] (H-Asp-Phe-OMe),synergy in combination with maple syrup (ORAC versus sum of SE+ingredient),[1],does not create this synergy
Pam3Cys,ROS production by dopaminergic neurons upon TLR2 activation of Cal27 cells,"[2]; FIG. 37, 50 ng/ml of Pam3Cys",reduce ROS production
same,neuroprotective role upon TLR2 activation of Cal27 cells,[2]; higher dose of Pam3Cys (250 or 500 ng/ml),did not have this neuroprotective role
same,impact on ROS production,[3]; 6.4 mM and 16 mM AAPH,no significant impact
same,impact on mitochondrial activity,[3]; 6.4 mM and 16 mM AAPH,no significant impact
same,ATP secretion,[3]; cells without AAPH,slightly increased ATP secretion
same,ATP production,[3]; high oxidative stress (16 mM AAPH),increases ATP production
OC[C@H]1O[C@H](O[C@]2(CCl)O[C@H](CCl)[C@@H](O)[C@@H]2O)[C@H](O)[C@@H](O)[C@H]1Cl [sucralose],synergy in combination with maple syrup (ORAC versus sum of SE+ingredient),[1],does not create this synergy
C=C1C[C@@]23CC[C@H]4[C@@](C)(CCC[C@@]4(C)C(=O)O[C@@H]4O[C@H](CO)[C@@H](O)[C@H](O)[C@H]4O)[C@@H]2CC[C@]1(O[C@@H]1O[C@H](CO)[C@@H](O)[C@H](O)[C@H]1O[C@@H]1O[C@H](CO)[C@@H](O)[C@H](O)[C@H]1O)C3 [stevioside],synergy in combination with maple syrup (ORAC versus sum of SE+ingredient),[1],act in synergy
